# Test results published in patent US8697728B2, “Perhexiline for use in the treatment of hypertrophic cardiomyopathy (HCM)” (The University of Birmingham, priority 2009, dated 2014).
# Tests used:
# symptomatic HCM patients [1] = assay: Cardiopulmonary exercise test (peak oxygen consumption), randomized double-blind placebo-controlled study; type: in vivo, human; conditions: p=0.003 vs placebo
# Excerpt: (§1) The study was approved by the South Birmingham Research Ethics Committee and the investigation conforms with the principles outlined in the Declaration of Helsinki. All study participants provided written informed consent. The study was a randomized, double blind, placebo-controlled parallel-group design of minimum 3 months duration. FIG. 1 represents a flow chart of the study. The pre-defined primary end point was peak oxygen consumption (peak VO2). Pre-defined secondary end points were symptomatic status, resting myocardial energetics (PCr/γ-ATP ratio) and diastolic function at rest and during exercise (nTTPF). 33 controls of similar age and gender distribution were recruited for comparison with baseline data of HCM patients. […]
# Following baseline studies, patients were randomized in a double-blind fashion to receive either perhexiline (n=25) or placebo (n=21) 100 mg OD. […] At the end of study, patients were re-evaluated as described earlier.
# Data were analyzed using SPSS ver. 15.0 for Window and Microsoft Office Excel 2007, and expressed as Mean±Standard Deviation (SD). Comparison of continuous variables between Perhexiline and Placebo baseline data were determined by unpaired Student's t-test (2-tail) if variables were normally distributed and the Mann-Whitney U-test if the data were non-normally distributed. […]
# symptomatic HCM patients [2] = assay: Side effects and deaths during the study; type: in vivo; conditions: perhexiline group (n=25), during the first week of treatment
# Excerpt: The study was a randomized, double blind, placebo-controlled parallel-group design of minimum 3 months duration. […] The pre-defined primary end point was peak oxygen consumption (peak VO2). Pre-defined secondary end points were symptomatic status, resting myocardial energetics (PCr/γ-ATP ratio) and diastolic function at rest and during exercise (nTTPF).
# Diabetic patients were also excluded to maintain the blindness of the study as Perhexiline may lead to a reduction in plasma glucose in such patients necessitating a reduction in anti-diabetic therapy. 46 consecutive consenting patients who met these entry criteria were recruited into the study.
# Following baseline studies, patients were randomized in a double-blind fashion to receive either perhexiline (n=25) or placebo (n=21) 100 mg OD. Serum perhexiline levels were obtained at 1 and 4 weeks after initiation of the drug. Dose adjustments were advised by an unblinded physician according to serum level to achieve therapeutic level and to avoid drug toxicity. Identical dosage adjustments were also made for randomly allocated placebo-treated patients by the unblinded observer to ensure that blinding of the investigators was maintained. At the end of study, patients were re-evaluated as described earlier.
# symptomatic HCM patients [3] = assay: Radionuclide ventriculography (diastolic ventricular filling, nTTPF); type: in vivo, human; conditions: perhexiline group, p=0.03 vs placebo response
# Excerpt: as §1, with “(nTTPF).” for “(nTTPF). 33 controls of similar age and gender distribution were recruited for comparison with baseline data of HCM patients.”
# Diastolic filling were assessed by equilibrium R-wave gated blood pool scintigraphy using a standard technique at rest and during graded semi erect exercise on a cycle ergometer (Atherton J J, Moore T D, Lele S S et al. Diastolic ventricular interaction in chronic heart failure. Lancet 1997;349 (9067):1720-1724; Lele S S, Macfarlane D, Morrison S, Thomson H, Khafagi F, Frenneaux M. Determinants of exercise capacity in patients with coronary artery disease and mild to moderate systolic dysfunction. Role of heart rate and diastolic filling abnormalities. Eur Heart J 1996;17(2):204-212). […]
# Data were analyzed using SPSS ver. 15.0 for Window and Microsoft Office Excel 2007, and expressed as Mean±Standard Deviation (SD). […]
smiles,measurement,setting,value
"C1CCC(C(CC2CCCCN2)C2CCCCC2)CC1 (centres unmarked) [perhexiline, 2-(2,2-dicyclohexylethyl) piperidine]","Effect on peak oxygen consumption (peak VO2, exercise capacity), in words",symptomatic HCM patients [1]; FIG. 3A legend,increases
same,Change in Peak VO2 after treatment (increase),"symptomatic HCM patients [1]; HCM patients, perhexiline group, after treatment vs baseline",2.09 mL/min/kg
same,Side effect: dizziness (number of patients),symptomatic HCM patients [2],2
same,Side effect: transient nausea (number of patients),symptomatic HCM patients [2],3
same,εnTTPF (change of nTTPF from rest to exercise) on therapy,symptomatic HCM patients [3],0.00 ± 0.003 s
